This passage reports IC50 results from US10266495B2, “Phenyl quinolinone derivatives as mutant-isocitrate dehydrogenase inhibitors” (FORMA TM2, Inc., priority 2014, dated 2019).

Like-named read-outs stand apart in the source and are kept apart here.

The test deals with IDH1-R132H recombinant protein (Homo sapiens, UniProt O75874, R132H). Description: IDH1-R132H enzymatic assay (NADPH consumption, diaphorase/resazurin readout). It is filed as biochemical. Here is the method:
Assays were performed in a 384-well black plate. An aliquot of 250 nL of compound was incubated with 10 μL of 30 nM IDH1-R132H or 10 nM IDH1-R132C recombinant protein in assay buffer (50 mM Tris pH=7.5, 150 mM NaCl, 5 mM MgCl2, 0.1% (w/v) Bovine Serum Albumin, and 0.01% Triton X-100) in each well at 25° C. for 15 minutes. After the plate was centrifuged briefly, an aliquot of 10 μL of 2 mM α-ketoglutarate and 20 μM NADPH solution prepared in assay buffer was then added to each well and the reaction was maintained at 25° C. for 45 minutes. An aliquot of 10 μL of diaphorase solution (0.15 U/mL diaphorase and 30 μM Resazurin in assay buffer) was added to each well. […] The IC50 of a given compound was calculated by fitting the dose response curve of inhibition of NADPH consumption at a given concentration with the four parameter logistic equation.
(In general: Resazurin is reduced to fluorescent resorufin, in cell work by metabolically active cells.)

The mark [1] stands for this setting: read-out: Enzyme IDH1 R132H IC50 Range.

IDH1-R132H recombinant protein, sequence (O75874 whole entry R132H): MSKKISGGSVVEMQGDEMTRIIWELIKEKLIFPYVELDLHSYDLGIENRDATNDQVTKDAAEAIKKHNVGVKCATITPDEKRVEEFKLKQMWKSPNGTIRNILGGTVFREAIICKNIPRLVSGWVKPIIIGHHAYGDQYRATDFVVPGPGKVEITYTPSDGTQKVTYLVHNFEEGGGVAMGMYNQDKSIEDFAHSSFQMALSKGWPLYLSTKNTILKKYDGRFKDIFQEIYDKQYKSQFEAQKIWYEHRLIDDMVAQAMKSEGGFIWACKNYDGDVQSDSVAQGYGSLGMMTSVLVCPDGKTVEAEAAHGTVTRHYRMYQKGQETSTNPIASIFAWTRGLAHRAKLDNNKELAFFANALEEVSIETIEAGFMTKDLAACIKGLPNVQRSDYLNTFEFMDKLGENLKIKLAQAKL

By IC50 is commonly meant the point on the concentration scale where inhibition reaches its midpoint. For `N#CCc1cccc(NCc2cc3cc(Cl)ccc3[nH]c2=O)c1` [Compound I-45, 2-(3-{[(6-chloro-2-oxo-1,2-dihydroquinolin-3-yl)methyl]amino}phenyl)acetonitrile], the IC50 under setting [1] was greater than 1000 nM.
The same measure, in the same setting: the same measure for `COc1cc(NCc2cc3cc(Cl)c(OCc4ccnc(C)c4)cc3[nH]c2=O)ccc1C#N` [Compound I-73, 4-[({6-chloro-7-[(2-methylpyridin-4-yl)methoxy]-2-oxo-1,2-dihydroquinolin-3-yl}methyl)amino]-2-methoxybenzonitrile]: 10 to 100 nM; for `COc1cc(NCc2cc3ccc(Cl)cc3[nH]c2=O)ccc1C#N` [Compound I-29, 4-{[(7-chloro-2-oxo-1,2-dihydroquinolin-3-yl)methyl]amino}-2-methoxybenzonitrile]: 100 to 1000 nM.
Take `COc1cc(NCc2cc3cc(Cl)ccc3[nH]c2=O)ccc1-n1ccnc1` [Compound I-12, 6-chloro-3-({[4-(1H-imidazol-1-yl)-3-methoxyphenyl]amino}methyl)-1,2-dihydroquinolin-2-one]: the IC50 under setting [1] is greater than 1000 nM.
With `Cc1cc2cc(CNc3cccc(S(=O)(=O)NC4=NCCC4)c3)c(=O)[nH]c2cc1C` [Compound I-19, N-(3,4-dihydro-2H-pyrrol-5-yl)-3-{[(6,7-dimethyl-2-oxo-1,2-dihydroquinolin-3-yl)methyl]amino}benzene-1-sulfonamide], under setting [1], the IC50 is greater than 1000 nM.
Regarding `N#Cc1ccc(NCc2cc3cc(Cl)ccc3[nH]c2=O)cc1OCCO` [Compound I-11, 4-{[(6-chloro-2-oxo-1,2-dihydroquinolin-3-yl)methyl]amino}-2-(2-hydroxyethoxy)benzonitrile], the IC50 under setting [1] was 100 to 1000 nM.
On to `COc1cc(N[C@H](C)c2cc3cc(Cl)ccc3[nH]c2=O)ccc1C#N` [Compound I-3, 4-{[(1R)-1-(6-chloro-2-oxo-1,2-dihydroquinolin-3-yl)ethyl]amino}-2-methoxybenzonitrile], for which the IC50 under setting [1] is greater than 1000 nM.
Same read-out and setting: the same measure for `NC(=O)COc1ccc(NCc2cc3cc(Cl)ccc3[nH]c2=O)cc1` [Compound I-43, 2-(4-{[(6-chloro-2-oxo-1,2-dihydroquinolin-3-yl)methyl]amino}phenoxy)acetamide]: greater than 1000 nM; for `COc1cc(NCc2cc3cc(I)ccc3[nH]c2=O)ccc1C#N` [Compound I-28, 4-{[(6-iodo-2-oxo-1,2-dihydroquinolin-3-yl)methyl]amino}-2-methoxybenzonitrile]: 100 to 1000 nM; for `NC(=O)c1ccccc1NCc1cc2cc(Cl)ccc2[nH]c1=O` [Compound I-40, 2-{[(6-chloro-2-oxo-1,2-dihydroquinolin-3-yl)methyl]amino}benzamide]: greater than 1000 nM.
Take `COc1cc(N[C@@H](C)c2cc3cc(Cl)ccc3[nH]c2=O)ccc1S(C)(=O)=O` [Compound I-6, 6-chloro-3-[(1S)-1-[(4-methanesulfonyl-3-methoxyphenyl)amino]ethyl]-1,2-dihydroquinolin-2-one]: the IC50 under setting [1] is greater than 1000 nM.
With `N#Cc1ccc(NCc2cc3cc(Cl)ccc3[nH]c2=O)cc1F` [Compound I-37, 4-{[(6-chloro-2-oxo-1,2-dihydroquinolin-3-yl)methyl]amino}-2-fluorobenzonitrile], the IC50 was 100 to 1000 nM.
As to `COc1cc(NCc2cc3cc(Cl)ccc3[nH]c2=O)ccc1S(C)(=O)=O` [Compound I-15, 6-chloro-3-{[(4-methanesulfonyl-3-methoxyphenyl)amino]methyl}-1,2-dihydroquinolin-2-one], the IC50 under setting [1] is greater than 1000 nM.
Still for that read-out and setting: to `COc1cc(NCc2cc3ccccc3[nH]c2=O)ccc1-n1cnnn1` [Compound I-48, 3-({[3-methoxy-4-(1H-1,2,3,4-tetrazol-1-yl)phenyl]amino}methyl)-1,2-dihydroquinolin-2-one] belongs greater than 1000 nM.
Consider `C[C@H](Nc1ccc(C#N)cc1S(C)(=O)=O)c1cc2cc(Cl)ccc2[nH]c1=O` [Compound I-4, 4-{[(1S)-1-(6-chloro-2-oxo-1,2-dihydroquinolin-3-yl)ethyl]amino}-3-methanesulfonylbenzonitrile], for which, under setting [1], the IC50 is greater than 1000 nM.
Turning to `COc1cc(NCc2cc3cc(Cl)ccc3[nH]c2=O)ccc1Cl` [Compound I-44, 6-chloro-3-{[(4-chloro-3-methoxyphenyl)amino]methyl}-1,2-dihydroquinolin-2-one], the IC50 under setting [1] is greater than 1000 nM.
In the case of `O=c1[nH]c2ccc(Cl)cc2cc1CNc1ccccc1F` [Compound I-46, 6-chloro-3-{[(2-fluorophenyl)amino]methyl}-1,2-dihydroquinolin-2-one], the IC50 under setting [1] was greater than 1000 nM.
Still for that read-out and setting: the same measure for `CNC(=O)c1ccc(NCc2cc3cc(Cl)ccc3[nH]c2=O)cc1` [Compound I-42, 4-{[(6-chloro-2-oxo-1,2-dihydroquinolin-3-yl)methyl]amino}-N-methylbenzamide]: greater than 1000 nM; for `COc1cc(NCc2cc3cc(Cl)cc(O)c3[nH]c2=O)ccc1C#N` [Compound I-96, 4-{[(6-chloro-8-hydroxy-2-oxo-1,2-dihydroquinolin-3-yl)methyl]amino}-2-methoxybenzonitrile]: 100 to 1000 nM; for `Cc1cc2cc(CNc3ccc(-n4cnnn4)cc3)c(=O)[nH]c2cc1C` [Compound I-51, 6,7-dimethyl-3-({[4-(1H-1,2,3,4-tetrazol-1-yl)phenyl]amino}methyl)-1,2-dihydroquinolin-2-one]: greater than 1000 nM.
On the same count and under the same terms, to `CCOc1ccc2[nH]c(=O)c(CNc3ccc(C#N)c(OC)c3)cc2c1` [Compound I-55, 4-{[(6-ethoxy-2-oxo-1,2-dihydroquinolin-3-yl)methyl]amino}-2-methoxybenzonitrile] belongs 100 to 1000 nM; to `N#Cc1ccc(NCc2cc3cc(Cl)ccc3[nH]c2=O)cc1OCC(N)=O` [Compound I-14, 2-(5-{[(6-chloro-2-oxo-1,2-dihydroquinolin-3-yl)methyl]amino}-2-cyanophenoxy)acetamide], greater than 1000 nM; to `COc1cc(NCc2cc3cccnc3[nH]c2=O)ccc1C#N` [Compound I-31, 2-methoxy-4-{[(2-oxo-1,2-dihydro-1,8-naphthyridin-3-yl)methyl]amino}benzonitrile], greater than 1000 nM.
The same measure, in the same setting: the same measure for `COc1cc(NCc2cc3cc(C)ccc3[nH]c2=O)ccc1-n1cnc(C)c1` [Compound I-18, 3-({[3-methoxy-4-(4-methyl-1H-imidazol-1-yl)phenyl]amino}methyl)-6-methyl-1,2-dihydroquinolin-2-one]: greater than 1000 nM.
Consider `COc1cc(NCc2cc3cc(Cl)c(O)cc3[nH]c2=O)ccc1C#N` [Compound I-57, 4-{[(6-chloro-7-hydroxy-2-oxo-1,2-dihydroquinolin-3-yl)methyl]amino}-2-methoxybenzonitrile], for which the IC50 under setting [1] fell in the range of 10 to 100 nM.
For the compound `COc1cc(C#N)ccc1NCc1cc2cc(Cl)ccc2[nH]c1=O` [Compound I-34, 4-{[(6-chloro-2-oxo-1,2-dihydroquinolin-3-yl)methyl]amino}-3-methoxybenzonitrile], the IC50 under setting [1] lay in the range of 100 to 1000 nM.
The same measure, in the same setting: to `O=c1[nH]c2ccccc2cc1CNc1ccc(-n2cnnn2)cc1` [Compound I-49, 3-({[4-(1H-1,2,3,4-tetrazol-1-yl)phenyl]amino}methyl)-1,2-dihydroquinolin-2-one] belongs greater than 1000 nM; to `COc1cc(NCc2cc3cc(C)ccc3[nH]c2=O)ccc1C#N` [Compound I-50, 2-methoxy-4-{[(6-methyl-2-oxo-1,2-dihydroquinolin-3-yl)methyl]amino}benzonitrile], 100 to 1000 nM; to `COc1cc(NCc2cc3ccc(C)cc3[nH]c2=O)ccc1C#N` [Compound I-54, 2-methoxy-4-{[(7-methyl-2-oxo-1,2-dihydroquinolin-3-yl)methyl]amino}benzonitrile], 100 to 1000 nM.
On the same count and under the same terms, to `COc1cc(NCc2cc3cc(C)c(C)cc3[nH]c2=O)ccc1C#N` [Compound I-17, 4-{[(6,7-dimethyl-2-oxo-1,2-dihydroquinolin-3-yl)methyl]amino}-2-methoxybenzonitrile] belongs greater than 1000 nM.
For `N#Cc1ccc(NCc2cc3cc(Cl)ccc3[nH]c2=O)cc1C(F)(F)F` [Compound I-35, 4-{[(6-chloro-2-oxo-1,2-dihydroquinolin-3-yl)methyl]amino}-2-(trifluoromethyl)benzonitrile], the IC50 lay within 100 to 1000 nM.
As for `COc1ccc2cc(CNc3ccc(C#N)c(OC)c3)c(=O)[nH]c2c1` [Compound I-56, 2-methoxy-4-{[(7-methoxy-2-oxo-1,2-dihydroquinolin-3-yl)methyl]amino}benzonitrile], the IC50 under setting [1] was in the range of 100 to 1000 nM.
Consider `COc1cc(NCc2cc3cc(Cl)ccc3[nH]c2=O)ccc1F` [Compound I-41, 6-chloro-3-{[(4-fluoro-3-methoxyphenyl)amino]methyl}-1,2-dihydroquinolin-2-one], for which the IC50 under setting [1] is greater than 1000 nM.
As for `CCOc1cc(NCc2cc3cc(Cl)ccc3[nH]c2=O)ccc1C#N` [Compound I-13, 4-{[(6-chloro-2-oxo-1,2-dihydroquinolin-3-yl)methyl]amino}-2-ethoxybenzonitrile], the IC50 under setting [1] lay within 100 to 1000 nM.
Same read-out and setting: the same measure for `COc1ccc2[nH]c(=O)c(CNc3ccc(C#N)c(OC)c3)cc2c1` [Compound I-52, 2-methoxy-4-{[(6-methoxy-2-oxo-1,2-dihydroquinolin-3-yl)methyl]amino}benzonitrile]: 100 to 1000 nM.
Still for that read-out and setting: the same measure for `COc1ccc2[nH]c(=O)c(CNc3ccc(-n4ccnc4)cc3)cc2c1` [Compound I-53, 3-({[4-(1H-imidazol-1-yl)phenyl]amino}methyl)-6-methoxy-1,2-dihydroquinolin-2-one]: greater than 1000 nM; for `COc1cc(NCc2cc3cc(Br)ccc3[nH]c2=O)ccc1C#N` [Compound I-23, 4-{[(6-bromo-2-oxo-1,2-dihydroquinolin-3-yl)methyl]amino}-2-methoxybenzonitrile]: 10 to 100 nM.
